# Values quoted from earlier work in PubChem BioAssay AID1259409 (Chemical Carcinogenesis Research Information System (CCRIS), 2018).
# Tested on: rodent chemically induced tumor inhibition, incidence and multiplicity
# Assay: CCRIS tumor inhibitor studies
# Details: Route [Inhibitor]: ORAL
smiles,measurement,setting,value
O=C1O[C@H]([C@@H](O)CO)C(O)=C1O,"tumour outcome (control, treated, inhibition, significance)","Carcinogen: 1,2-DIMETHYLHYDRAZINE DICHLORIDE, 306-37-6, Dose [Inhibitor]: 0, 0.3% SOLUTION IN DRINKING WATER BEGINNING 1 WK POST CARCINOGEN TREATMENT AND AND CONTINUING FOR DURATION OF STUDY (ST, Species: MOUSE, Strain/Sex: CBA/FEMALE, Target Tissue: Type of Lesion: UTERUS: SARCOMA, Dose [Carcinogen]: 8 MG/KG 1/WK FOR 8 WK, Promoter: ESTRADIOL DIPROPIONATE, 133-38-2","25/40 (63%), 14/40 (35%), 44%, p<0.001"
same,"tumour outcome (control, treated, inhibition, significance)","Carcinogen: 1,2-DIMETHYLHYDRAZINE DICHLORIDE, 306-37-6, Dose [Inhibitor]: 0, 0.3% SOLUTION IN DRINKING WATER BEGINNING 1 WK POST CARCINOGEN TREATMENT AND CONTINUING FOR DURATION OF STUDY (STUDY, Species: MOUSE, Strain/Sex: CBA/FEMALE, Target Tissue: Type of Lesion: UTERUS: SARCOMA, Dose [Carcinogen]: 8 MG/KG 1/WK FOR 8 WK, Promoter: ESTRADIOL DIPROPIONATE, 133-38-2","25/40 (63%), 24/32 (75%), -19%, not calculated"
same,"tumour outcome (control, treated, inhibition, significance)","Carcinogen: 1,2-DIMETHYLHYDRAZINE-DIHYDROCHLORIDE, 306-37-6, Dose [Inhibitor]: 25 MG/KG/D IN DIET STARTING AT TIME OF CARCINOGEN TREATMENT AND CONTINUING FOR 35 WK (STUDY DURATION: 35 WK), Species: MOUSE, Strain/Sex: CF-1/FEMALE, Target Tissue: Type of Lesion: LARGE BOWEL: GLANDULAR TUMORS, Dose [Carcinogen]: 20 MG/KG 1/WK FOR 24 WK, Promoter: NONE USED","18/20 (90%), 19/22 (86%), 4%, not significant"
same,"tumour outcome (control, treated, inhibition, significance)","Carcinogen: 1,2-DIMETHYLHYDRAZINE-DIHYDROCHLORIDE, 306-37-6, Dose [Inhibitor]: 50 MG/KG/D IN DIET STARTING AT TIME OF CARCINOGEN TREATMENT AND CONTINUING FOR 35 WK (STUDY DURATION: 35 WK), Species: MOUSE, Strain/Sex: CF-1/FEMALE, Target Tissue: Type of Lesion: LARGE BOWEL: GLANDULAR TUMORS, Dose [Carcinogen]: 20 MG/KG, 1/WK FOR 24 WK, Promoter: NONE USED","18/20 (90%), 20/20 (100%), -11%, not significant"
same,"tumour outcome (control, treated, inhibition, significance)","Carcinogen: 1,2-DIMETHYLHYDRAZINE-DIHYDROCHLORIDE, 306-37-6, Dose [Inhibitor]: 100 MG/KG/DAY IN DIET STARTING AT TIME OF CARCINOGEN TREATMENT AND CONTINUING FOR 35 WK (STUDY DURATION: 35 WK), Species: MOUSE, Strain/Sex: CF-1/FEMALE, Target Tissue: Type of Lesion: LARGE BOWEL: GLANDULAR TUMORS, Dose [Carcinogen]: 20 MG/KG 1/WK FOR 24 WK, Promoter: NONE USED","18/20 (90%), 16/23 (70%), 22%, not significant"
same,"tumour outcome (control, treated, inhibition, significance)","Carcinogen: 1,2-DIMETHYLHYDRAZINE-DIHYDROCHLORIDE, 306-37-6, Dose [Inhibitor]: 200 MG/KG/DAY IN DIET STARTING AT TIME OF CARCINOGEN TREATMENT AND CONTINUING FOR 35 WK (STUDY DURATION: 35 WK), Species: MOUSE, Strain/Sex: CF-1/FEMALE, Target Tissue: Type of Lesion: LARGE BOWEL: GLANDULAR TUMORS, Dose [Carcinogen]: 20 MG/KG 1/WK FOR 24 WK, Promoter: NONE USED","18/20 (90%), 19/23 (83%), 8%, not significant"
same,"tumour outcome (control, treated, inhibition, significance)","Carcinogen: 1,2-DIMETHYLHYDRAZINE, 540-73-8, Dose [Inhibitor]: 0, 0.02% IN DIET FOR 14 WK BEGINNING 3 D PRIOR TO CARCINOGEN TREATMENT (STUDY DURATION: 26 WK), Species: RAT, Strain/Sex: SPRAGUE-DAWLEY/MALE, Target Tissue: Type of Lesion: INTESTINE: CARCINOMA, Dose [Carcinogen]: 20 MG/KG BW 1/WK FOR 12 WK, Promoter: NONE USED","23/28 (82%), 12/18 (67%), 18%, not significant"
same,"tumour outcome (control, treated, inhibition, significance)","Carcinogen: 1,2-DIMETHYLHYDRAZINE, 540-73-8, Dose [Inhibitor]: 0, 5% IN DIET BEGINNING 1 WK POST LAST CARCINOGEN DOSE AND CONTINUING FOR 36 WK (STUDY DURATION: 40 WK), Species: RAT, Strain/Sex: F344/MALE, Target Tissue: Type of Lesion: COLON: ADENOMA, Dose [Carcinogen]: 20 MG/KG 1/WK FOR 4 WK, Promoter: NONE USED","1/20 (5%), 6/20 (30%), -500%, p<0.05"
same,"tumour outcome (control, treated, inhibition, significance)","Carcinogen: 1,2-DIMETHYLHYDRAZINE, 540-73-8, Dose [Inhibitor]: 0, 5% IN DIET BEGINNING 1 WK POST LAST CARCINOGEN DOSE AND CONTINUING FOR 36 WK (STUDY DURATION: 40 WK), Species: RAT, Strain/Sex: F344/MALE, Target Tissue: Type of Lesion: COLON: CARCINOMA, Dose [Carcinogen]: 20 MG/KG 1/WK FOR 4 WK, Promoter: NONE USED","6/20 (30%), 7/20 (35%), -17%, not calculated"
same,"tumour outcome (control, treated, inhibition, significance)","Carcinogen: 1,2-DIMETHYLHYDRAZINE, 540-73-8, Dose [Inhibitor]: 0, 10 G/L IN DRINKING WATER FOR DURATION OF STUDY BEGINNING 7 D PRIOR TO CARCINOGEN TREATMENT (STUDY DURATION: 8 MO), Species: RAT, Strain/Sex: BD6/MALE, Target Tissue: Type of Lesion: INTESTINE: TUMOR, Dose [Carcinogen]: 20 MG/KG BW 1/WK FOR 20 WK, Promoter: NONE USED","100%, 100%, 0%, not significant"
same,"tumour outcome (control, treated, inhibition, significance)","Carcinogen: 1,2-DIMETHYLHYDRAZINE, 540-73-8, Dose [Inhibitor]: 0.25% IN 20% FAT DIET DAILY STARTING 2 WK BEFORE CARCINOGEN TREATMENT AND CONTINUING FOR DURATION OF STUDY (STUDY DURATI, Species: RAT, Strain/Sex: F344/FEMALE, Target Tissue: Type of Lesion: COLON: ADENOMA, ADENOCARCINOMA, Dose [Carcinogen]: 150 MG/KG BW IN 0.9% SALINE ADJUSTED TO PH 6.8 ONCE, Promoter: NONE USED","26%, 0%, 100%, p<0.05"
same,"tumour outcome (control, treated, inhibition, significance)","Carcinogen: 1,2-DIMETHYLHYDRAZINE, 540-73-8, Dose [Inhibitor]: 0.25% IN 20% FAT DIET DAILY STARTING 2 WK BEFORE CARCINOGEN TREATMENT AND CONTINUING FOR DURATION OF STUDY (STUDY DURATI, Species: RAT, Strain/Sex: F344/FEMALE, Target Tissue: Type of Lesion: KIDNEY: NEPHROBLASTOMA, ADENOCARCINOMA, Dose [Carcinogen]: 150 MG/KG BW IN 0.9% SALINE ADJUSTED TO PH 6.8 ONCE, Promoter: NONE USED","22%, 4%, 82%, p<0.05"
same,"tumour outcome (control, treated, inhibition, significance)","Carcinogen: 1,2-DIMETHYLHYDRAZINE, 540-73-8, Dose [Inhibitor]: 0.3% IN DRINKING WATER BEGINNING AFTER LAST CARCINOGEN DOSE AND CONTINUING FOR DURATION OF STUDY (STUDY DURATION: 55 WK), Species: MOUSE, Strain/Sex: CBA/FEMALE, Target Tissue: Type of Lesion: UTERUS (ENDOMETRIUM): STROMAL SARCOMA, Dose [Carcinogen]: 8 MG/KG BW IN WATER 1/WK FOR 8 WK, Promoter: ESTRADIOL PROPIONATE, 113-38-2","13/40 (33%), 13/30 (43%), -33%, not calculated"
